Reference: patent publication US20160324863A1, “TARGETED CANCER TREATMENT BY HSP90 INHIBITORS GANETESPIB AND NVP-AUY922” (SYNTA PHARMACEUTICALS CORP., priority 2014, published 2016)

Assays:
[1] = test system: J82 bladder cancer cell line; assay: CellTiter-Glo viability assay, J82; type: cell-based; conditions: FGFR3 status K652E, 72 hours, read-out: Ganetespib IC50
Description: (§1) Cellular viability was assessed using the CellTiter-Glo Luminescent Cell Viability Assay (Promega) according to manufacturer protocols. Bladder cancer cell lines were seeded into 96-well plates based on optimal growth rates determined empirically for each line. Twenty-four hours after plating, cells were dosed with graded concentrations of ganetespib for 72 hours. CellTiter-Glo was added (50% v/v) to the cells, and the plates incubated for 10 minutes prior to luminescent detection in a SpectraMax Plus 384 microplate reader (Molecular Devices). Data were normalized to percent of control and IC50 values used to determine the sensitivity of each line. For the comparative analyses with ganetespib and BGJ398, RT112 cells were treated with graded concentrations of each compound for 72 hours and cell viability measured as above. For the evaluation of apoptotic induction, caspase activity was assessed using the Caspase-Glo 3/7 assay (Promega) according to manufacturer protocols. Twenty-four hours after plating, RT112 cells were treated with graded concentrations of ganetespib for 24 hours. Caspase-Glo was added to cells (50% v/v) and the plates incubated for 1 hour prior to luminescent detection.

[2] = test system: HT-1197 bladder cancer cell line; assay: CellTiter-Glo viability assay, HT-1197; type: cell-based; conditions: Homo sapiens, HT1197, FGFR3 status WT, 72 hours, read-out: Ganetespib IC50
Description: as §1

[3] = test system: SCaBER bladder cancer cell line; assay: CellTiter-Glo viability assay, SCaBER; type: cell-based; conditions: Homo sapiens, FGFR3 status WT, 72 hours, read-out: Ganetespib IC50
Description: as §1

[4] = test system: SW780 bladder cancer cell line; assay: CellTiter-Glo viability assay, SW780; type: cell-based; conditions: Homo sapiens, FGFR3 status FGFR3-BAIAP2L1, 72 hours, read-out: Ganetespib IC50
Description: as §1

[5] = test system: DHS1 bladder cancer cell line; assay: CellTiter-Glo viability assay, DHS1; type: cell-based; conditions: FGFR3 status WT, 72 hours, read-out: Ganetespib IC50
Description: as §1

[6] = test system: HT-1376 bladder cancer cell line; assay: CellTiter-Glo viability assay, HT-1376; type: cell-based; conditions: Homo sapiens, FGFR3 status WT, 72 hours, read-out: Ganetespib IC50
Description: as §1

SW780 cells = assay: LC-MS/MS bioanalysis of ganetespib and glucuronidated metabolites in SW780 cells; type: in vitro ADME; conditions: 1 μM ganetespib, by 24 hours
Description: (§2) In the first set of experiments, RT112 and SW780 cells were treated with graded concentrations of ganetespib or 17-DMAG (10-1000 nM) for 1 and 24 hours. Cell lysates were prepared for measurement of intracellular concentrations of the respective HSP90 inhibitors. RT112 and SW780 cells were also treated with 1 μM ganetespib for 15 minutes, 1, 4, 8 and 24 hours. At each time point cell lysates were prepared and media was collected for analysis of intracellular and secreted concentrations of ganetespib and its glucuronidated metabolites. Bioanalysis was performed on equal protein concentrations from cell lysates or equal volumes of media. All samples were ultimately extracted by protein precipitation and analyzed by LC-MS/MS using an Agilent 1100 HPLC interfaced to an API 4000 tandem mass spectrometer (Applied Biosystems). A Phenomenex Kinetex 2.6 μm C18 (30×2.1 mm) column was used with a run time of 3.5 min per sample.

RT112 cells = assay: LC-MS/MS bioanalysis of ganetespib and glucuronidated metabolites in RT112 cells; type: in vitro ADME; conditions: 1 μM ganetespib, 24-hour time course
Description: as §2

[7] = weekly dosing regimen; cited from earlier work
[8] = test system: 97-7 bladder cancer cell line; assay: CellTiter-Glo viability assay, 97-7; type: cell-based; conditions: FGFR3 status S249C, 72 hours, read-out: Ganetespib IC50
Description: as §1

[9] = test system: MGH-U3 bladder cancer cell line; assay: CellTiter-Glo viability assay, MGH-U3; type: cell-based; conditions: FGFR3 status Y375C, 72 hours, read-out: Ganetespib IC50
Description: as §1

[10] = test system: RT112 bladder cancer cells; assay: Reverse phase protein array analysis in RT112 cells; type: cell-based; conditions: 100 nM ganetespib, 24 hours
Description: RT112 cells were treated with dimethyl sulfoxide (DMSO, control) or 100 nM ganetespib for 24 hours. Lysates were prepared as recommended by MD Anderson Cancer Center (Houston, Tex.), arrayed on nitrocellulose-coated FAST slides (Whatman) and probed for a standard list of antibodies.

[11] = test system: 647-V bladder cancer cell line; assay: CellTiter-Glo viability assay, 647-V; type: cell-based; conditions: Homo sapiens, FGFR3 status WT, 72 hours, read-out: Ganetespib IC50
Description: as §1

[12] = test system: UM-UC3 bladder cancer cell line; assay: CellTiter-Glo viability assay, UM-UC3; type: cell-based; conditions: Homo sapiens, UMUC3, FGFR3 status WT, 72 hours, read-out: Ganetespib IC50
Description: as §1

RT112 xenografts = assay: RT112 xenograft tumor model; type: in vivo; conditions: ganetespib 150 mg/kg i.v. once weekly, 3 weeks
Description: CD-1 nude mice (Charles River Laboratories, Wilmington, Mass.) at 7-12 weeks of age were maintained in a pathogen-free environment and all in vivo procedures were approved by the Synta Pharmaceuticals Corp. Institutional Animal Care and Use Committee. RT112 cells (5×10^6) were subcutaneously implanted into female mice and animals bearing established tumors (˜150 mm^3) were randomized into treatment groups of 8. Mice were i.v. dosed with ganetespib (150 mg/kg) once weekly or p.o. dosed with BGJ398 (10 mg/kg) daily, either alone or in combination, for 3 weeks. Tumor growth inhibition was monitored by tumor volume measurements twice weekly. As a measurement of in vivo efficacy, the % T/C value was determined from the change in average tumor volumes of each treated group relative to the vehicle treated animals. Statistical significance was determined using two-way ANOVA followed by Bonferroni post tests.

CC(C)c1cc(-c2n[nH]c(=O)n2-c2ccc3c(ccn3C)c2)c(O)cc1O [ganetespib]
IC50 [1]: 0.018 µM | IC50 [2]: 0.053 µM | IC50 [3]: 0.01 µM | IC50 [4]: 3.45 µM | IC50 [5]: 0.006 µM | IC50 [6]: 0.021 µM | intracellular ganetespib concentrations (SW780 cells): undetectable | glucuronidated form of ganetespib within cells (RT112 cells): No glucuronidated form of ganetespib was detectable | maximally tolerated dose [7]: 150 mg/kg | IC50 [8]: 0.038 µM | IC50 [9]: 0.053 µM | Fold Change AKT ([10]; AKT signaling): −2.4 fold | Fold Change AKT (pS473) ([10]; AKT signaling): −2.5 fold | Fold Change GSK3-A/B ([10]; AKT signaling): −1.5 fold | Fold Change GSK3-A/B (pS2/S9) ([10]; AKT signaling): −1.8 fold | Fold Change PDK1 ([10]; AKT signaling): −1.4 fold | Fold Change PDK1 (pS241) ([10]; AKT signaling): −1.7 fold | Fold Change BIM ([10]; Apoptosis): +1.4 fold | Fold Change Caspase 7 (cleaved D198) ([10]; Apoptosis): +2.5 fold | Fold Change CDK1 ([10]; Cell cycle regulation): −1.4 fold | Fold Change Chk1 ([10]; Cell cycle regulation): −3.2 fold | Fold Change Cyclin B1 ([10]; Cell cycle regulation): −1.9 fold | Fold Change Rb (pS807/811) ([10]; Cell cycle regulation): −4.6 fold | Fold Change p21 ([10]; Cell cycle regulation): +1.4 fold | Fold Change p27 ([10]; Cell cycle regulation): +1.5 fold | Fold Change C-RAF ([10]; MAPK pathway): −1.8 fold | Fold Change MAPK (pT202/Y204) ([10]; MAPK pathway): −1.5 fold | Fold Change MEK1 (pS217/S221) ([10]; MAPK pathway): −1.4 fold | Fold Change P90RSK (pT359/S363) ([10]; MAPK pathway): −1.4 fold | Fold Change Src (pY527) ([10]; MAPK pathway): −1.4 fold | Fold Change EGFR ([10]; Receptor Tyrosine Kinases): −1.5 fold | Fold Change EGFR (pY1068) ([10]; Receptor Tyrosine Kinases): −1.9 fold | Fold Change HER2 ([10]; Receptor Tyrosine Kinases): −2.2 fold | Fold Change HER2 (pY1248) ([10]; Receptor Tyrosine Kinases): −2.2 fold | Fold Change HER3 ([10]; Receptor Tyrosine Kinases): −1.6 fold | Fold Change MET (pY1235) ([10]; Receptor Tyrosine Kinases): −2.7 fold | Fold Change HSP70/72 ([10]; Stress response): +3.0 fold | Fold Change HSP90 alpha ([10]; Stress response): +1.6 fold | Fold Change NF-κB p65 (pS536) ([10]; Transcription factors): −2.3 fold | Fold Change c-Myc ([10]; Transcription factors): −2.5 fold | Fold Change 4E-BP1 (pS65) ([10]; mTOR pathway): −2.5 fold | Fold Change P70S6K (pT389) ([10]; mTOR pathway): −4.7 fold | Fold Change PRAS40 (pT246) ([10]; mTOR pathway): −1.2 fold | Fold Change S6 (pS235/S236) ([10]; mTOR pathway): −13.2 fold | Fold Change S6 (pS240/S244) ([10]; mTOR pathway): −8.9 fold | Fold Change TSC1 ([10]; mTOR pathway): −1.3 fold | Fold Change Tuberin ([10]; mTOR pathway): −2.2 fold | Fold Change mTOR (pS2448) ([10]; mTOR pathway): −2.2 fold | IC50 [11]: 0.027 µM | IC50 [12]: 0.033 µM | T/C value (RT112 xenografts): −23%
